Patent US12685312B2, “Sulfonamide apyrase inhibitors” (Texas Crop Science, Inc., priority 2022, dated 2026)

Tested on: apyrase
Assay: Screen for apyrase inhibitors (Method 1, in vitro phosphate-release absorbance assay)
Assay type: biochemical
Settings: inhibitor conc at 1 mM stock, 1 hr room temperature, absorbance 630 nm; rounded average of two assay results
How it was run: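 Phosphate-release colorimetric assay (Windsor method) in 60 mM Hepes, 3 mM MgCl2, 3 mM CaCl2, 3 mM ATP, pH 6.5, with compound or DMSO control added. Released phosphate developed with ammonium molybdate and ascorbic acid/TCA, then stopped with citrate/acetic acid.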

% Inhibition of Apyrase	SMILES
63%	O=C1CN(S(=O)(=O)c2ccc(Cl)cc2)c2ccccc2N1 [I-829, 4-((4-chlorophenyl)sulfonyl)-3,4-dihydroquinoxalin-2(1H)-one]
60%	O=C(Nc1ccccc1NS(=O)(=O)c1cccs1)c1ccc(Br)cc1 [I-830, 4-bromo-N-(2-(thiophene-2-sulfonamido)phenyl)benzamide]
59%	COc1ccc([N+](=O)[O-])cc1S(=O)(=O)Nc1ccccc1NC(=O)c1ccc(C(C)(C)C)cc1 [I-831, 4-(tert-butyl)-N-(2-((2-methoxy-5-nitrophenyl)sulfonamido)phenyl)benzamide]
58%	O=C(Nc1ccccc1NS(=O)(=O)c1cccs1)c1ccc(Cl)cc1 [I-832, 4-chloro-N-(2-(thiophene-2-sulfonamido)phenyl)benzamide]
58%	O=C(Nc1ccccc1NS(=O)(=O)c1ccc(F)cc1)c1cccc(S(=O)(=O)C(F)(F)F)c1 [I-833, N-(2-((4-fluorophenyl)sulfonamido)phenyl)-3-((trifluoromethyl)sulfonyl)benzamide]
54%	O=C(Nc1cc(Cl)ccc1NS(=O)(=O)c1ccccc1F)c1ccc(NC(=O)C2CC2)cc1 [I-834, N-(5-chloro-2-((2-fluorophenyl)sulfonamido)phenyl)-4-(cyclopropanecarboxamido)benzamide]
52%	O=C(Nc1ccccc1NS(=O)(=O)c1cccs1)c1cc(Br)ccc1F [I-835, 5-bromo-2-fluoro-N-(2-(thiophene-2-sulfonamido)phenyl)benzamide]
49%	O=C(Nc1ccccc1NS(=O)(=O)c1cccs1)c1ccc(C(F)(F)F)cc1 [I-836, N-(2-(thiophene-2-sulfonamido)phenyl)-4-(trifluoromethyl)benzamide]
35%	O=C(Nc1ccccc1NS(=O)(=O)c1cccs1)c1ccc(Cl)cc1F [I-837, 4-chloro-2-fluoro-N-(2-(thiophene-2-sulfonamido)phenyl)benzamide]
29%	CC(C)(C)c1ccc(C(=O)Nc2ccccc2NS(=O)(=O)c2cccc(S(N)(=O)=O)c2)cc1 [I-838, 4-(tert-butyl)-N-(2-((3-sulfamoylphenyl)sulfonamido)phenyl) benzamide]
23%	O=C(Nc1ccccc1NS(=O)(=O)c1ccc(F)cc1)c1ccc(Cl)cc1 [I-839, 4-chloro-N-(2-((4-fluorophenyl)sulfonamido)phenyl)benzamide]
18%	O=C(Nc1ccccc1NS(=O)(=O)c1cccs1)c1cc(Cl)ccc1F [I-840, 5-chloro-2-fluoro-N-(2-(thiophene-2-sulfonamido)phenyl)benzamide]
8%	O=C(Nc1ccccc1NS(=O)(=O)c1ccc2oc(=O)ccc2c1)c1ccc(Cl)cc1 [I-841, 4-chloro-N-(2-((2-oxo-2H-chromene)-6-sulfonamido)phenyl)benzamide]
5%	O=C1CCCN1c1ccccc1NS(=O)(=O)c1ccc(Br)cc1 [I-842, 4-bromo-N-(2-(2-oxopyrrolidin-1-yl)phenyl)benzenesulfonamide]
5%	O=C1Cc2cc(S(=O)(=O)Nc3ccccc3NC(=O)c3ccc(Cl)cc3)ccc2N1 [I-843, 4-chloro-N-(2-((2-oxoindoline)-5-sulfonamido)phenyl)benzamide]
5%	O=C1Cc2cccc(NS(=O)(=O)c3ccc(Cl)cc3)c2N1 [I-844, 4-chloro-N-(2-oxoindolin-7-yl)benzenesulfonamide]
1%	O=C(Nc1cc(Cl)ccc1NS(=O)(=O)c1ccccc1F)c1ccccc1 [I-845, N-(5-chloro-2-((2-fluorophenyl)sulfonamido)phenyl)benzamide]
82%	Cc1cccc(NS(=O)(=O)c2ccc(C(=O)Nc3cccc(C#N)c3)cc2)c1C [I-855, N-(3-cyanophenyl)-4-(N-(2,3-dimethylphenyl)sulfamoyl)benzamide]
76%	CC1Cc2ccccc2N1C(=O)c1ccc(S(=O)(=O)Nc2ccccc2)cc1 (stereo not shown) [I-857, 4-(2-methylindoline-1-carbonyl)-N-phenylbenzenesulfonamide]
76%	COc1ccc2c(c1)CCCN2C(=O)c1ccc(S(=O)(=O)Nc2ccc(F)cc2)cc1 [I-858, N-(4-fluorophenyl)-4-(6-methoxy-1,2,3,4-tetrahydroquinoline-1-carbonyl)benzenesulfonamide]
72%	Cc1ccc(NC(=O)c2ccc(C(=O)Nc3ccc(C)cc3)cc2)cc1 [I-859, N1,N4-di-p-tolylterephthalamide]
71%	O=C(c1ccc(S(=O)(=O)Nc2ccccc2)cc1)N1CCc2ccccc21 [I-860, 4-(indoline-1-carbonyl)-N-phenylbenzenesulfonamide]

% Inhibition of Apyrase	SMILES
68%	CSc1cccc(NC(=O)c2ccc(C(=O)Nc3cccc(SC)c3)cc2)c1 [I-861, N1,N4-bis(3-(methylthio)phenyl)terephthalamide]
61%	Cc1ccc(NS(=O)(=O)c2ccc(C(=O)Nc3ccc(C)cc3Br)cc2)cc1 [I-862, N-(2-bromo-4-methylphenyl)-4-(N-(p-tolyl)sulfamoyl)benzamide]
59%	Cc1ccc(Cl)cc1NC(=O)c1ccc(S(=O)(=O)N2CCCc3ccccc32)cc1 [I-863, N-(5-chloro-2-methylphenyl)-4-((3,4-dihydroquinolin-1(2H)-yl)sulfonyl)benzamide]
59%	CC(C)c1ccc(NC(=O)c2ccc(S(=O)(=O)N3CCCc4ccccc43)cc2)cc1 [I-864, 4-((3,4-dihydroquinolin-1(2H)-yl)sulfonyl)-N-(4-isopropylphenyl)benzamide]
59%	CN(c1ccccc1)S(=O)(=O)c1ccc(C(=O)N2CCc3ccccc32)cc1 [I-865, 4-(indoline-1-carbonyl)-N-methyl-N-phenylbenzenesulfonamide]
58%	COc1ccc2c(c1)CCCN2C(=O)c1ccc(S(=O)(=O)N2CCCc3ccccc32)cc1 [I-866, (4-((3,4-dihydroquinolin-1(2H)-yl)sulfonyl)phenyl)(6-methoxy-3,4-dihydroquinolin-1(2H)-yl)methanone]
58%	COc1ccccc1N(C)S(=O)(=O)c1ccc(C(=O)N2CCSc3ccccc32)cc1 [I-867, 4-(3,4-dihydro-2H-benzo[b][1,4]thiazine-4-carbonyl)-N-(2-methoxyphenyl)-N-methylbenzenesulfonamide]
58%	CCN(CC)S(=O)(=O)c1cccc(NC(=O)c2ccc(S(=O)(=O)N3CCCc4ccccc43)cc2)c1 [I-868, N-(3-(N,N-diethylsulfamoyl)phenyl)-4-((3,4-dihydroquinolin-1(2H)-yl)sulfonyl)benzamide]
57%	COc1ccccc1N(C)S(=O)(=O)c1ccc(C(=O)N2CCc3ccc([N+](=O)[O-])cc32)cc1 [I-869, N-(2-methoxyphenyl)-N-methyl-4-(6-nitroindoline-1-carbonyl)benzenesulfonamide]
57%	COc1ccccc1N(C)S(=O)(=O)c1ccc(C(=O)N2CCc3ccccc32)cc1 [I-870, 4-(indoline-1-carbonyl)-N-(2-methoxyphenyl)-N-methylbenzenesulfonamide]
56%	COc1ccc2c(c1)CCCN2C(=O)c1ccc(S(=O)(=O)Nc2ccccc2)cc1 [I-871, 4-(6-methoxy-1,2,3,4-tetrahydroquinoline-1-carbonyl)-N-phenylbenzenesulfonamide]
56%	COc1ccc2c(c1)CCCN2C(=O)c1ccc(S(=O)(=O)Nc2ccccc2C)cc1 [I-872, 4-(6-methoxy-1,2,3,4-tetrahydroquinoline-1-carbonyl)-N-(o-tolyl)benzenesulfonamide]
56%	COc1ccc(C(C)(C)C)cc1NC(=O)c1ccc(S(=O)(=O)N(C)c2ccccc2OC)cc1 [I-873, N-(5-(tert-butyl)-2-methoxyphenyl)-4-(N-(2-methoxyphenyl)-N-methylsulfamoyl)benzamide]
56%	CNC(=O)c1ccc(NC(=O)c2ccc(S(=O)(=O)Nc3ccc(C)cc3)cc2)cc1 [I-874, N-methyl-4-(4-(N-(p-tolyl)sulfamoyl)benzamido)benzamide]
55%	O=C(Nc1ccc2c(c1)OCCO2)c1ccc(C(=O)Nc2ccc3c(c2)OCCO3)cc1 [I-875, N1,N4-bis(2,3-dihydrobenzo[b][1,4]dioxin-6-yl)terephthalamide]
54%	O=C(Nc1ccc2c(c1)OCO2)c1ccc(C(=O)Nc2ccc3c(c2)OCO3)cc1 [I-876, N1,N4-bis(benzo[d][1,3]dioxol-5-yl)terephthalamide]
54%	COc1ccccc1N(C)S(=O)(=O)c1ccc(C(=O)N2CCCc3ccccc32)cc1 [I-877, N-(2-methoxyphenyl)-N-methyl-4-(1,2,3,4-tetrahydroquinoline-1-carbonyl)benzenesulfonamide]
54%	COc1ccccc1N(C)S(=O)(=O)c1ccc(C(=O)N2CCCSc3ccccc32)cc1 [I-878, N-(2-methoxyphenyl)-N-methyl-4-(2,3,4,5-tetrahydrobenzo[b][1,4]thiazepine-5-carbonyl)benzenesulfonamide]
53%	Cc1ccccc1NS(=O)(=O)c1ccc(C(=O)N2c3ccccc3CC2C)cc1 (stereo not shown) [I-879, 4-(2-methylindoline-1-carbonyl)-N-(o-tolyl)benzenesulfonamide]
53%	COc1ccccc1NC(=O)c1ccc(S(=O)(=O)N(C)c2ccccc2OC)cc1 [I-880, N-(2-methoxyphenyl)-4-(N-(2-methoxyphenyl)-N-methylsulfamoyl)benzamide]
53%	CC(=O)c1cc2c(cc1NC(=O)c1ccc(S(=O)(=O)N3CCCc4ccccc43)cc1)OCO2 [I-881, N-(6-acetylbenzo[d][1,3]dioxol-5-yl)-4-((3,4-dihydroquinolin-1(2H)-yl)sulfonyl)benzamide]
